Experimental data as given in patent US7820817B2, “Modulators of muscarinic receptors” (Vertex Pharmaceuticals Incorporated, priority 2004, dated 2010).

Tested on: at least one muscarinic receptor, M1, M2, M3, M4
Experiment: Muscarinic modulation activity (Table 3)
Format: cell-based
Parameters: key: +++: exhibited muscarinic modulation activity for at least one muscarinic receptor, M1, M2, M3, M4, at a concentration of less than 5 μM; ++: exhibited muscarinic modulation activity for at least one muscarinic receptor, M1, M2, M3, M4, at a concentration of between 30 μM and 5 μM; +: exhibited muscarinic modulation activity for at least one muscarinic receptor, M1, M2, M3, M4, at a concentration of greater than 30 μM; −: were not assayed or did not exhibit muscarinic modulation activity for at least one muscarinic receptor, M1, M2, M3, M4, at the concentration at which the assay was performed
Conditions: concentration at which modulation of at least one muscarinic receptor, M1, M2, M3, M4, was exhibited; CHO cells
Experimental: CHO cells expressing muscarinic receptors (M1 to M5) are grown as monolayers in tissue culture flasks at 37° C. in a humidified atmosphere containing 5% CO2 and passaged every 3-5 days. The growth media is Dulbecco's modified eagles medium (DMEM, Gibco Cat#12430-054), containing 25 mM Hepes and supplemented with Fetal Bovine Serum (Hyclone, cat#SH30071.03), 0.1 mM of MEM non-essential amino acids (GIBCO, Cat#11140-050), 1 mM MEM Sodium Pyruvate (GIBCO Cat#11360-070) and 100 units/ml of Penicillin G and 100 μg/ml of Streptomycin (GIBCO Cat#15140-122). The recombinant muscarinic receptor cell lines are grown under antibiotic pressure with media containing 25 μg/ml zeocin and 500 μg/ml G418 (M1-CHO), 4 μg/ml puromycin, 50 μg/ml zeocin and 2.5 μg/ml blasticidin (M2 and M4-CHO) or 50 μg/ml zeocin and 4 μg/ml puromycin (M3 and M5-CHO).
Cells are harvested at 80-90% confluence using Versene (GIBCO Cat#15040-066), collected by centrifugation and seeded 18-24 hrs prior to running the calcium assay at a density of 5,000-10,000 cells/well in […], clear-bottomed 384-well plates (BD Biocoat, poly-D-lysine, Cat#356663). The day of the experiment, the cells are washed with a plate washer (Bioteck Instruments, ELX 405) using bath1 buffer (140-mM NaCl, 4.5-mM KCl, 2-mM CaCl2, 1-mM MgCl2, 10-mM Hepes-Na, 10-mM Glucose, pH 7.4, with NaOH) containing 1 mM Probenecid. Next, the calcium dye Fluo-3 (25 μl/well of Fluo-3 AM at 4 μM, Molecular Probes F-1241, in Bath 1 buffer containing 1 mM Probenecid) is added to the 25 μl of Bath 1 remaining in each well after the plate wash and the dye is loaded at 37° C. in the tissue culture incubator for 60-90 min. The fluorescent dye is removed using the plate washer with Bath 1 containing 1 mM Probenecid, leaving 25 μl/well of this solution after the wash. Alternatively, cells can be loaded with the calcium indicator from Molecular Devices (Calcium 3 Assay Reagents, Cat #R7181) adding 5 μl of a 5× solution dye in Bath 1 containing 1 mM Probenecid (10 ml per dye flask cat#R7182 to generate a solution […]) to 20 μl of the same buffer. After loading for 60 min. the experiment can be run without having to remove the dye.
Compounds are prepared at a 2× fold concentration in a 96-well plate (round bottom, Costar Corning cat#3656), by reconstituting the pre-spotted compounds in bath 1 containing 1 mM probenecid. The final concentration DMSO is 0.5%, and the amount of DMSO is normalized across the assay plate. To determine an agonist action of the compounds on muscarinic receptors, the reconstituted compounds are added (25 μl compound/well) to the cell assay plate (containing 25 μl/well) using the multi-channel robotic system of the FLIPR 3 Instrument (Molecular Devices, Sunnyvale, Calif.). To determine a functional inhibitory action of the compounds on muscarinic receptors, the reconstituted compounds are added (25 μl compound/well) to the assay plate and pre-incubated for 15 min prior to adding 25 μl of Carbachol at 3× the EC80 for each muscarinic subtype. Alternatively, the compounds can be co-applied simultaneously with the agonist. In both assay modes, the fluorescence is recorded for 60 sec (excitation wavelength is […] and emission wavelength 540 nm) using the FLIPR 3 instrument.
The potency, efficacy and selectivity of the muscarinic compounds were evaluated by screening the compound activity across the whole family (M1 to M5 cells).
CHO cells expressing muscarinic receptors (M1 to M5) and containing a gene reporter system β-Lactamase) with transcriptional control mediated by calcium release (NFAT activation). See Zlokarnik, G; Negulescu, P. A.; Knapp, T. E.; Mere, L; Burres, N; Feng, L; Whitney, M; Roemer, K; Tsien, R. Y. Quantitation of transcription and clonal selection of single living cells with β-lactamase as reporter. Science, 1998 Jan. 2, 279(5347):84-8. The cells are grown as monolayers in tissue culture flasks at 37° C. in a humidified atmosphere containing 5% CO2 and passaged every 3-5 days. […]

SMILES: Cc1ccc(C#N)c(N2CCN(CC3CC4C=CC3C4)CC2)n1 (centres unmarked) [Compound 62, 2-[4-(5-bicyclo[2.2.1]hept-2-enylmethyl)piperazin-1-yl]-6-methyl-nicotinonitrile]
- ACTIVITY (muscarinic modulation activity): +++ (exhibited muscarinic modulation activity for at least one muscarinic receptor, M1, M2, M3, M4, at a concentration of less than 5 μM)

SMILES: N#Cc1ccc(C(F)(F)F)nc1N1CCN(CC2CC3CCC2C3)CC1 (centres unmarked) [Compound 8, 2-[4-(norbornan-2-ylmethyl)piperazin-1-yl]-6-(trifluoromethyl)nicotinonitrile]
- ACTIVITY (muscarinic modulation activity): −

SMILES: N#Cc1ccc(C(F)(F)F)nc1N1CCN(C2CC3CCC2C3)CC1 (centres unmarked) [Compound 3, 2-(4-norbornan-2-ylpiperazin-1-yl)-6-(trifluoromethyl)nicotinonitrile]
- ACTIVITY (muscarinic modulation activity): + (exhibited muscarinic modulation activity for at least one muscarinic receptor, M1, M2, M3, M4, at a concentration of greater than 30 μM)

SMILES: CCOC(=O)N1C2CCC1CC(N1CCN(c3ccncc3S(N)(=O)=O)CC1)C2 (centres unmarked) [Compound 49, 3-[4-(3-sulfamoyl-4-pyridyl)piperazin-1-yl]-8-azabicyclo[3.2.1]octane-8-carboxylic acid ethyl ester]
- ACTIVITY (muscarinic modulation activity): +++ (exhibited muscarinic modulation activity for at least one muscarinic receptor, M1, M2, M3, M4, at a concentration of less than 5 μM)

SMILES: O=[N+]([O-])c1cccnc1N1CCN(CC2CC3C=CC2C3)CC1 (centres unmarked) [Compound 1, 1-(5-bicyclo[2.2.1]hept-2-enylmethyl)-4-(3-nitro-2-pyridyl)-piperazine]
- ACTIVITY (muscarinic modulation activity): ++ (exhibited muscarinic modulation activity for at least one muscarinic receptor, M1, M2, M3, M4, at a concentration of between 30 μM and 5 μM)

SMILES: FC(F)(F)c1cnc(N2CCN(CC3CC4C=CC3C4)CC2)c(Cl)c1 (centres unmarked) [Compound 74, 1-(5-bicyclo[2.2.1]hept-2-enylmethyl)-4-[3-chloro-5-(trifluoromethyl)-2-pyridyl]-piperazine]
- ACTIVITY (muscarinic modulation activity): −

SMILES: CCc1cnc(N2CCN(CC3CC4CCC3C4)CC2)nc1 (centres unmarked) [Compound 22, 5-ethyl-2-[4-(norbornan-2-ylmethyl)piperazin-1-yl]-pyrimidine]
- ACTIVITY (muscarinic modulation activity): −

SMILES: c1cc(N2CCN(C3C4CC5CC(C4)CC3C5)CC2)ccn1 (centres unmarked) [Compound 75, 1-(2-adamantyl)-4-(4-pyridyl)piperazine]
- ACTIVITY (muscarinic modulation activity): ++ (exhibited muscarinic modulation activity for at least one muscarinic receptor, M1, M2, M3, M4, at a concentration of between 30 μM and 5 μM)

SMILES: CCOC(=O)N1C2CCC1CC(N1CCC(c3nc(OC)cc(OC)n3)CC1)C2 (centres unmarked) [Compound 57, 3-[4-(4,6-dimethoxypyrimidin-2-yl)-1-piperidyl]-8-azabicyclo[3.2.1]octane-8-carboxylic acid ethyl ester]
- ACTIVITY (muscarinic modulation activity): +++ (exhibited muscarinic modulation activity for at least one muscarinic receptor, M1, M2, M3, M4, at a concentration of less than 5 μM)

SMILES: C1=CC2CC1CC2CN1CCN(c2ncccn2)CC1 (centres unmarked) [Compound 76, 2-[4-(5-bicyclo[2.2.1]hept-2-enylmethyl)piperazin-1-yl]pyrimidine]
- ACTIVITY (muscarinic modulation activity): +++ (exhibited muscarinic modulation activity for at least one muscarinic receptor, M1, M2, M3, M4, at a concentration of less than 5 μM)

SMILES: NS(=O)(=O)c1cnccc1N1CCN(CC2CC3CCC2C3)CC1 (centres unmarked) [Compound 55, 4-[4-(norbornan-2-ylmethyl)piperazin-1-yl]pyridine-3-sulfonamide]
- ACTIVITY (muscarinic modulation activity): ++ (exhibited muscarinic modulation activity for at least one muscarinic receptor, M1, M2, M3, M4, at a concentration of between 30 μM and 5 μM)

SMILES: c1ccc(N2CCN(C3CC4CCC3C4)CC2)nc1 (centres unmarked) [Compound 65, 1-norbornan-2-yl-4-(2-pyridyl)piperazine]
- ACTIVITY (muscarinic modulation activity): ++ (exhibited muscarinic modulation activity for at least one muscarinic receptor, M1, M2, M3, M4, at a concentration of between 30 μM and 5 μM)

SMILES: CCOC(=O)N1C2CCC1CC(N1CCN(c3ccc(C(F)(F)F)cn3)CC1)C2 (centres unmarked) [Compound 28, 3-[4-[5-(trifluoromethyl)-2-pyridyl]piperazin-1-yl]-8-azabicyclo[3.2.1]octane-8-carboxylic acid ethyl ester]
- ACTIVITY (muscarinic modulation activity): +++ (exhibited muscarinic modulation activity for at least one muscarinic receptor, M1, M2, M3, M4, at a concentration of less than 5 μM)

SMILES: NC(=O)c1cccnc1N1CCN(C2CC3CCC2C3)CC1 (centres unmarked) [Compound 10, 2-(4-norbornan-2-ylpiperazin-1-yl)nicotinamide]
- ACTIVITY (muscarinic modulation activity): −

SMILES: N#Cc1nccnc1N1CCN(C2CC3CCC2C3)CC1 (centres unmarked) [Compound 43, 3-(4-norbornan-2-ylpiperazin-1-yl)pyrazine-2-carbonitrile]
- ACTIVITY (muscarinic modulation activity): −

SMILES: O=[N+]([O-])c1cccnc1N1CCN(C2CC3CCC2C3)CC1 (centres unmarked) [Compound 5, 1-(3-nitro-2-pyridyl)-4-norbornan-2-yl-piperazine]
- ACTIVITY (muscarinic modulation activity): + (exhibited muscarinic modulation activity for at least one muscarinic receptor, M1, M2, M3, M4, at a concentration of greater than 30 μM)

SMILES: NC(=O)c1cccnc1N1CCN(CC2CC3C=CC2C3)CC1 (centres unmarked) [Compound 6, 2-[4-(5-bicyclo[2.2.1]hept-2-enylmethyl)piperazin-1-yl]nicotinamide]
- ACTIVITY (muscarinic modulation activity): −

SMILES: Cc1cnc(C)c(N2CCN(C3CC4CCC3C4)CC2)n1 (centres unmarked) [Compound 40, 2,5-dimethyl-3-(4-norbornan-2-ylpiperazin-1-yl)-pyrazine]
- ACTIVITY (muscarinic modulation activity): −

SMILES: Cc1cccnc1N1CCN(CC2CC3C=CC2C3)CC1 (centres unmarked) [Compound 20, 2-[4-(5-bicyclo[2.2.1]hept-2-enylmethyl)piperazin-1-yl]-3-methyl-pyridine]
- ACTIVITY (muscarinic modulation activity): +++ (exhibited muscarinic modulation activity for at least one muscarinic receptor, M1, M2, M3, M4, at a concentration of less than 5 μM)

SMILES: CCOC(=O)N1C2CCC1CC(N1CCN(c3ncccc3C#N)CC1)C2 (centres unmarked) [Compound 12, 3-[4-(3-cyano-2-pyridyl)piperazin-1-yl]-8-azabicyclo[3.2.1]octane-8-carboxylic acid ethyl ester]
- ACTIVITY (muscarinic modulation activity): +++ (exhibited muscarinic modulation activity for at least one muscarinic receptor, M1, M2, M3, M4, at a concentration of less than 5 μM)

SMILES: Clc1cccnc1N1CCN(CC2CC3C=CC2C3)CC1 (centres unmarked) [Compound 52, 1-(5-bicyclo[2.2.1]hept-2-enylmethyl)-4-(3-chloro-2-pyridyl)-piperazine]
- ACTIVITY (muscarinic modulation activity): ++ (exhibited muscarinic modulation activity for at least one muscarinic receptor, M1, M2, M3, M4, at a concentration of between 30 μM and 5 μM)

SMILES: Cc1cc(C)nc(N2CCN(C3CC4CCC3C4)CC2)n1 (centres unmarked) [Compound 72, 4,6-dimethyl-2-(4-norbornan-2-ylpiperazin-1-yl)-pyrimidine]
- ACTIVITY (muscarinic modulation activity): −

SMILES: Cc1cccnc1N1CCN(C2CC3CCC2C3)CC1 (centres unmarked) [Compound 60, 1-(3-methyl-2-pyridyl)-4-norbornan-2-yl-piperazine]
- ACTIVITY (muscarinic modulation activity): + (exhibited muscarinic modulation activity for at least one muscarinic receptor, M1, M2, M3, M4, at a concentration of greater than 30 μM)
